In brackets after ≈: the same amount, converted by molar mass.
Legend:
[1] = tested on: T1, E. coli BL21 (DE3)-pET-28a(+)-HRVM-1; test: microbe, parasite or virus in culture; parameters: species or system Escherichia coli BL21 (DE3) transformants; agar dilution MIC on Mueller-Hinton agar with 1 mM IPTG; settings: Escherichia coli, read-out: MIC (μg/mL) for E. coli strain / E. coli BL21 (DE3)-pET-28a(+)-HRVM-1
T1 construct: BL21 (DE3) pET-28a(+)/blaHRVM-1-His6 transformant expressing HRVM-1 metallo-beta-lactamase
Method: (§1) When cultures of the cloned E. coli BL21 (DE3) cells reached approximately 0.6 at OD600, 1 mM isopropyl β-D-1-thiogalactopyranoside was added to induce expression of the blaHRV-1 or blaHRVM-1 gene followed by culture at 16 °C for 16 h. Susceptibility to benzylpenicillin, ampicillin, piperacillin, ticarcillin, oxacillin, cloxacillin, cephalothin, cefoxitin, cefotaxime, ceftazidime, cefepime, aztreonam, meropenem, imipenem (Sigma-Aldrich), and ertapenem (Merck & Co., Inc, Kenilworth, NJ, USA) against cloned E. coli BL21 (DE3) was assessed using the agar dilution technique in Mueller-Hinton agar (Difco Laboratories Inc., Detroit, MI, USA) including 1 mM IPTG with an inoculum of 10^5 CFU per spot. The PCR products were double-digested with NdeI and XhoI for the HRV-1 and NcoI and XhoI for the HRVM-1, and the digested DNAs were cloned into corresponding restriction enzyme-digested pET-28a(+) or pET-30a(+) vectors (Novagen, Madison, WI, USA). Recombinant plasmids [pET-30a(+)/blaHRV-1-His6 and pET-28a(+)/blaHRVM-1-His6] were transformed into E. coli BL21 (DE3) (Invitrogen, Carlsbad, CA, USA).

[2] = tested on: T2, E. coli BL21 (DE3)-pET-30a(+)-HRV-1; test: microbe, parasite or virus in culture; parameters: species or system Escherichia coli BL21 (DE3) transformants; agar dilution MIC on Mueller-Hinton agar with 1 mM IPTG; settings: Escherichia coli, HRV1, read-out: MIC (μg/mL) for E. coli strain / E. coli BL21 (DE3)-pET-30a(+)-HRV-1
T2 construct: BL21 (DE3) pET-30a(+)/blaHRV-1-His6 transformant expressing HRV-1 beta-lactamase
Method: as §1

HRVM-1 = tested on: T3, HRVM-1; test: UV spectrophotometric beta-lactam hydrolysis, steady-state kinetics; type: biochemical; settings: 50 mM MES pH 7.0, 100 μM ZnCl2, 100 μg/mL BSA, 30 °C
T3 construct: gene blaHRVM-1; expressed in E. coli BL21(DE3) from pET-28a(+)/blaHRVM-1-His6 (NcoI/XhoI); His6 tag removal by enterokinase stated; purified
From the text: UV spectrophotometric beta-lactam hydrolysis, steady-state kinetics on HRVM-1 | the kcat/km of HRVM-1 for imipenem

HRV-1 = tested on: T4, HRV-1; test: as above; type: biochemical; settings: 10 mM MES pH 6.8, 30 °C, 20 μg/mL BSA
T4 construct: gene blaHRV-1; expressed in E. coli BL21(DE3) from pET-30a(+)/blaHRV-1-His6 (NdeI/XhoI); His6 tag removal by enterokinase stated; purified

| SMILES | MIC [1] | MIC [2] | Km (HRVM-1) | Km (HRV-1) |
| --- | --- | --- | --- | --- |
| CO[C@@]1(NC(=O)Cc2cccs2)C(=O)N2C(C(=O)O)=C(COC(N)=O)CS[C@@H]21 [Cefoxitin] | 4 µg/mL (≈ 9.36 µM) | 4 µg/mL (≈ 9.36 µM) | – | – |
| CO/N=C(\C(=O)N[C@@H]1C(=O)N2C(C(=O)[O-])=C(C[N+]3(C)CCCC3)CS[C@H]12)c1csc(N)n1 [Cefepime] | 4 µg/mL (≈ 8.32 µM) | 4 µg/mL (≈ 8.32 µM) | – | – |
| C[C@@H](O)[C@H]1C(=O)N2C(C(=O)O)=C(S[C@@H]3CN[C@H](C(=O)N(C)C)C3)[C@H](C)[C@H]12 [Meropenem] | 0.5 µg/mL (≈ 1.3 µM) | 0.5 µg/mL (≈ 1.3 µM) | – | – |
| C[C@H]1[C@H](NC(=O)/C(=N\OC(C)(C)C(=O)O)c2csc(N)n2)C(=O)N1S(=O)(=O)O [Aztreonam] | 8 µg/mL (≈ 18.4 µM) | 8 µg/mL (≈ 18.4 µM) | – | – |
| Cc1onc(-c2ccccc2)c1C(=O)N[C@@H]1C(=O)N2[C@@H]1SC(C)(C)[C@@H]2C(=O)O [Oxacillin] | 128 µg/mL (≈ 319 µM) | 256 µg/mL (≈ 638 µM) | – | – |
| Cc1onc(-c2ccccc2Cl)c1C(=O)N[C@@H]1C(=O)N2[C@@H]1SC(C)(C)[C@@H]2C(=O)O [Cloxacillin] | 128 µg/mL (≈ 294 µM) | 256 µg/mL (≈ 587 µM) | – | – |
| C[C@@H](O)[C@H]1C(=O)N2C(C(=O)O)=C(SCCN=CN)C[C@H]12 [imipenem] | 0.5 µg/mL (≈ 1.67 µM) | 0.5 µg/mL (≈ 1.67 µM) | 5.42 ± 0.01 µM | – |
| CCN1CCN(C(=O)N[C@@H](C(=O)N[C@@H]2C(=O)N3[C@@H]2SC(C)(C)[C@@H]3C(=O)O)c2ccccc2)C(=O)C1=O [Piperacillin] | 32 µg/mL (≈ 61.8 µM) | 64 µg/mL (≈ 124 µM) | – | – |
| CC(C)(O/N=C(\C(=O)N[C@@H]1C(=O)N2C(C(=O)[O-])=C(C[n+]3ccccc3)CS[C@H]12)c1csc(N)n1)C(=O)O [ceftazidime] | 8 µg/mL (≈ 14.6 µM) | 8 µg/mL (≈ 14.6 µM) | – | 12.15 ± 0.02 µM |
| CC1(C)S[C@@H]2[C@H](NC(=O)Cc3ccccc3)C(=O)N2[C@H]1C(=O)O [Benzylpenicillin] | 256 µg/mL (≈ 766 µM) | 512 µg/mL (≈ 1530 µM) | – | – |
| CC1(C)S[C@@H]2[C@H](NC(=O)[C@H](N)c3ccccc3)C(=O)N2[C@H]1C(=O)O [Ampicillin] | 32 µg/mL (≈ 91.6 µM) | 64 µg/mL (≈ 183 µM) | – | – |
| CC(=O)OCC1=C(C(=O)O)N2C(=O)[C@@H](NC(=O)Cc3cccs3)[C@H]2SC1 [Cephalothin] | 32 µg/mL (≈ 80.7 µM) | 32 µg/mL (≈ 80.7 µM) | – | – |
| C[C@@H](O)[C@H]1C(=O)N2C(C(=O)O)=C(S[C@@H]3CN[C@H](C(=O)Nc4cccc(C(=O)O)c4)C3)[C@H](C)[C@H]12 [Ertapenem] | 0.5 µg/mL (≈ 1.05 µM) | 0.5 µg/mL (≈ 1.05 µM) | – | – |
| CC1(C)S[C@@H]2[C@H](NC(=O)[C@H](C(=O)O)c3ccsc3)C(=O)N2[C@H]1C(=O)O [Ticarcillin] | 32 µg/mL (≈ 83.2 µM) | 32 µg/mL (≈ 83.2 µM) | – | – |
| CO/N=C(\C(=O)N[C@@H]1C(=O)N2C(C(=O)O)=C(COC(C)=O)CS[C@H]12)c1csc(N)n1 [cefotaxime] | 8 µg/mL (≈ 17.6 µM) | 8 µg/mL (≈ 17.6 µM) | – | 11.74 ± 0.01 µM |
